Data published in patent US20090074815A1, “Immunomodulator Compounds as Vaccine Enhancers” (SCICLONE PHARMACEUTICALS, INC., priority 2005, published 2009).
Where two headings read alike, the source gives them in different places.

Experiments:
[1] = system: IL-2 production by ConA-stimulated splenocytes; assay: IL-2 production by ConA-stimulated splenocytes; format: in vivo, mice
[2] = system: IFN-γ production by OvA-stimulated splenocytes; assay: OvA-stimulated production of IFN-γ by splenocytes of OvA-immunized mice; format: in vivo; conditions: for activity at 0.0001 mg/kg / activity at 0.001 mg/kg / activity at 0.01 mg/kg: Mus musculus, Splenocyte, po, read-out: Production of IFN-γ by splenocytes, % (% of control); for activity at 0.001 mg/kg: 1.0 μg/kg per os; for activity at 0.01 mg/kg: 10.0 μg/kg per os
[3] = OvA/Alum, 0.1 μg/kg per os, OvA 0 μg/ml
[4] = OvA/Alum, 0.1 μg/kg per os, OvA 10 μg/ml
[5] = OvA/Alum, 0.1 μg/kg per os, OvA 25 μg/ml
[6] = OvA/Alum, 0.1 μg/kg per os, OvA 50 μg/ml
[7] = OvA/Alum, 0.1 μg/kg per os, OvA 100 μg/ml
[8] = OvA/Alum, 0.1 μg/kg i/p, OvA 10 μg/ml
[9] = OvA/Alum, 0.1 μg/kg i/p, OvA 25 μg/ml
[10] = OvA/Alum, 0.1 μg/kg i/p, OvA 50 μg/ml
[11] = OvA/Alum, 0.1 μg/kg i/p, OvA 100 μg/ml
[12] = OvA/Alum, 1.0 μg/kg i/p, OvA 25 μg/ml
[13] = OvA/Alum, 1.0 μg/kg i/p, OvA 50 μg/ml

N[C@H](CCC(=O)N[C@@H](Cc1c[nH]c2ccccc12)C(=O)O)C(=O)O [SCV-07, γ-D-glutamyl-L-tryptophan]
IL-2 production (U/ml), M ± SD ([1]; ConA 1 μg/ml, 0.01 μg/kg per os): 10.4 ± 1.1 U/ml | IL-2 production (U/ml), M ± SD ([1]; ConA 1 μg/ml, 0.1 μg/kg i/p): 16.1 ± 0.8 U/ml | IL-2 production (U/ml), M ± SD ([1]; ConA 1 μg/ml, 0.1 μg/kg per os): 7.5 ± 0.1 U/ml | IL-2 production (U/ml), M ± SD ([1]; ConA 1 μg/ml, 1.0 μg/kg i/p): 15.6 ± 0.3 U/ml | IL-2 production (U/ml), M ± SD ([1]; ConA 1 μg/ml, 1.0 μg/kg per os): 10.0 ± 0.4 U/ml | IL-2 production (U/ml), M ± SD ([1]; ConA 1 μg/ml, 10.0 μg/kg per os): 9.1 ± 1.3 U/ml | IL-2 production (U/ml), M ± SD ([1]; ConA 1 μg/ml, 100.0 μg/kg per os): 14.9 ± 2.4 U/ml | IL-2 production (U/ml), M ± SD ([1]; ConA 2 μg/ml, 0.01 μg/kg per os): 66.9 ± 12.6 U/ml | IL-2 production (U/ml), M ± SD ([1]; ConA 2 μg/ml, 0.1 μg/kg i/p): 93.4 ± 28.3 U/ml | IL-2 production (U/ml), M ± SD ([1]; ConA 2 μg/ml, 0.1 μg/kg per os): 85.8 ± 6.6 U/ml | IL-2 production (U/ml), M ± SD ([1]; ConA 2 μg/ml, 1.0 μg/kg i/p): 99.3 ± 6.1 U/ml | IL-2 production (U/ml), M ± SD ([1]; ConA 2 μg/ml, 1.0 μg/kg per os): 60.8 ± 1.2 U/ml | IL-2 production (U/ml), M ± SD ([1]; ConA 2 μg/ml, 10.0 μg/kg per os): 56.4 ± 2.1 U/ml | IL-2 production (U/ml), M ± SD ([1]; ConA 2 μg/ml, 100.0 μg/kg per os): 79.3 ± 16.3 U/ml | IL-2 production (U/ml), M ± SD ([1]; Spontaneous, 0.01 μg/kg per os): 0.0 ± 0.0 U/ml | IL-2 production (U/ml), M ± SD ([1]; Spontaneous, 0.1 μg/kg i/p): 2.0 ± 0.3 U/ml | IL-2 production (U/ml), M ± SD ([1]; Spontaneous, 0.1 μg/kg per os): 0.0 ± 0.0 U/ml | IL-2 production (U/ml), M ± SD ([1]; Spontaneous, 1.0 μg/kg i/p): 2.7 ± 0.3 U/ml | IL-2 production (U/ml), M ± SD ([1]; Spontaneous, 1.0 μg/kg per os): 0.3 ± 0.5 U/ml | IL-2 production (U/ml), M ± SD ([1]; Spontaneous, 10.0 μg/kg per os): 0.0 ± 0.0 U/ml | IL-2 production (U/ml), M ± SD ([1]; Spontaneous, 100.0 μg/kg per os): 0.3 ± 0.5 U/ml | activity at 0.0001 mg/kg [2, 3]: 100% | activity at 0.0001 mg/kg [2, 4]: 124% | activity at 0.0001 mg/kg [2, 5]: 150% | activity at 0.0001 mg/kg [2, 6]: 150% | activity at 0.0001 mg/kg [2, 7]: 158% | activity at 0.001 mg/kg ([2]; OvA/Alum, OvA 0 μg/ml): 100% | activity at 0.001 mg/kg ([2]; OvA/Alum, OvA 10 μg/ml): 98.3% | activity at 0.001 mg/kg ([2]; OvA/Alum, OvA 25 μg/ml): 103% | activity at 0.001 mg/kg ([2]; OvA/Alum, OvA 50 μg/ml): 103% | activity at 0.001 mg/kg ([2]; OvA/Alum, OvA 100 μg/ml): 122% | activity at 0.01 mg/kg ([2]; OvA/Alum, OvA 0 μg/ml): 100% | activity at 0.01 mg/kg ([2]; OvA/Alum, OvA 10 μg/ml): 47.9% | activity at 0.01 mg/kg ([2]; OvA/Alum, OvA 25 μg/ml): 119% | activity at 0.01 mg/kg ([2]; OvA/Alum, OvA 50 μg/ml): 119% | activity at 0.01 mg/kg ([2]; OvA/Alum, OvA 100 μg/ml): 140% | activity at 0.0001 mg/kg ([2]; OvA/FA, 0.1 μg/kg per os, OvA 0 μg/ml): 100% | activity at 0.0001 mg/kg ([2]; OvA/FA, 0.1 μg/kg per os, OvA 10 μg/ml): 119% | activity at 0.0001 mg/kg ([2]; OvA/FA, 0.1 μg/kg per os, OvA 25 μg/ml): 121% | activity at 0.0001 mg/kg ([2]; OvA/FA, 0.1 μg/kg per os, OvA 50 μg/ml): 142% | activity at 0.0001 mg/kg ([2]; OvA/FA, 0.1 μg/kg per os, OvA 100 μg/ml): 136% | activity at 0.001 mg/kg ([2]; OvA/FA, OvA 0 μg/ml): 100% | activity at 0.001 mg/kg ([2]; OvA/FA, OvA 10 μg/ml): 128% | activity at 0.001 mg/kg ([2]; OvA/FA, OvA 25 μg/ml): 87.3% | activity at 0.001 mg/kg ([2]; OvA/FA, OvA 50 μg/ml): 116% | activity at 0.001 mg/kg ([2]; OvA/FA, OvA 100 μg/ml): 113% | activity at 0.01 mg/kg ([2]; OvA/FA, OvA 0 μg/ml): 100% | activity at 0.01 mg/kg ([2]; OvA/FA, OvA 10 μg/ml): 83.7% | activity at 0.01 mg/kg ([2]; OvA/FA, OvA 25 μg/ml): 66.2% | activity at 0.01 mg/kg ([2]; OvA/FA, OvA 50 μg/ml): 75.9% | activity at 0.01 mg/kg ([2]; OvA/FA, OvA 100 μg/ml): 74.8% | Production of IFN-γ by splenocytes ([2]; OvA/Alum, 0.1 μg/kg i/p, OvA 0 μg/ml): 9365 pg/mL | Production of IFN-γ by splenocytes [2, 8]: 8816 pg/mL | Production of IFN-γ by splenocytes, % (% of control) [2, 8]: 94.1% | Production of IFN-γ by splenocytes [2, 9]: 8028 pg/mL | Production of IFN-γ by splenocytes, % (% of control) [2, 9]: 85.7% | Production of IFN-γ by splenocytes [2, 10]: 8028 pg/mL | Production of IFN-γ by splenocytes, % (% of control) [2, 10]: 85.7% | Production of IFN-γ by splenocytes [2, 11]: 8048 pg/mL | Production of IFN-γ by splenocytes, % (% of control) [2, 11]: 85.9% | Production of IFN-γ by splenocytes [2, 3]: 4642 pg/mL | Production of IFN-γ by splenocytes [2, 4]: 5775 pg/mL | Production of IFN-γ by splenocytes [2, 5]: 6969 pg/mL | Production of IFN-γ by splenocytes [2, 6]: 6969 pg/mL | Production of IFN-γ by splenocytes [2, 7]: 7310 pg/mL | Production of IFN-γ by splenocytes ([2]; OvA/Alum, 1.0 μg/kg i/p, OvA 0 μg/ml): 7129 pg/mL | Production of IFN-γ by splenocytes ([2]; OvA/Alum, 1.0 μg/kg i/p, OvA 10 μg/ml): 9986 pg/mL | Production of IFN-γ by splenocytes [2, 12]: 7982 pg/mL | Production of IFN-γ by splenocytes, % (% of control) [2, 12]: 112.0% | Production of IFN-γ by splenocytes [2, 13]: 7982 pg/mL | Production of IFN-γ by splenocytes, % (% of control) [2, 13]: 112.0% | Production of IFN-γ by splenocytes ([2]; OvA/Alum, 1.0 μg/kg i/p, OvA 100 μg/ml): 8155 pg/mL
